Data from paper PMC9646673, “A Novel, Orally Bioavailable, Small-Molecule Inhibitor of PCSK9 With Significant Cholesterol-Lowering Properties In Vivo” (Journal of Lipid Research, 2022).

Legend:
APOE∗3-Leiden.CETP mice [1] = assay: First efficacy study: body weight, food intake, plasma AST and ALT; type: in vivo, mouse; design: Body weight (mean ± SD) / Food intake (mean ± SD): unit not given here; settings: for Plasma ALT / Plasma AST: group-pooled
From the text: (§1) Animal experiments were approved by the governmental central committee on animal experiments (AVD5010020172064) and TNO’s animal welfare body (TNO-471 and TNO-482). Female APOE∗3-Leiden.CETP transgenic mice (11–16 weeks of age) were bred at the animal facility of TNO-InnoSer (Leiden, The Netherlands). Female animals were used in this study as they are more responsive to dietary cholesterol and fat than males and therefore typically develop atherosclerosis more rapidly than male APOE∗3-Leiden and APOE∗3-Leiden.CETP mice on cholesterol-containing diets ([33], [34]). Although measurements of atherosclerosis were not included as part of the present study, females were used with the prospect in mind that atherosclerosis studies will follow. The mice were housed under standard conditions that included 12 h light-dark cycles and access to a WTD and sterilized tap water ad libitum. Body weight, food intake, and clinical signs of behavior were monitored throughout the studies. […] Time t = 0 (weeks) was designated as the time at which mice were matched into groups after the 3-week run-in period in each efficacy study.
Treatment times were around 8:00 am and 4:00 pm each day. Throughout the in-life phase of the study, body weight and food intake (per cage) were measured at regular predetermined intervals while blood samples were collected every 7 days. The last gavage was administered on day 27. On day 28, the mice were sacrificed by CO2 asphyxiation, EDTA-plasma was obtained via heart puncture, and the liver was weighed and collected. Throughout the study, plasma cholesterol, triglycerides, HDL-C, lipoprotein profiles, PCSK9 expression levels, aspartate transaminase levels (AST), and alanine transaminase levels (ALT) were measured as described below.
(§2) In both studies, blood samples were collected at weekly intervals via tail vein sampling after fasting the mice for 4 h. Blood samples were centrifugated (4500 g at 4°C), and the plasma was collected for the following analyses. Total plasma cholesterol levels were determined using a Cholesterol CHOD-PAP kit according to the manufacturer’s instructions. Plasma HDL-C levels were determined by first precipitating apoB-containing lipids using PEG 6000/glycine and then utilizing the Cholesterol CHOD-PAP kit ([35]). Non-HDL-C levels were determined by subtracting HDL-C levels from total cholesterol levels ([32]). Group-pooled lipoprotein profiles were determined by FPLC analysis using an AKTApurifier 10 FPLC system (GE Healthcare, Chicago, IL). Plasma PCSK9 levels were determined using a Mouse PCSK9 Quantikine ELISA kit as per the manufacturer’s protocol. ALT and AST levels of group-pooled samples were measured using the Roche Reflotron Plus System (Mannheim, Germany).

hepatic LDLR protein = assay: First efficacy study: hepatic LDLR protein (Western blotting); type: in vivo, mouse; settings: day 28
From the text: Animal experiments were approved by the governmental central committee on animal experiments (AVD5010020172064) and TNO’s animal welfare body (TNO-471 and TNO-482). Female APOE∗3-Leiden.CETP transgenic mice (11–16 weeks of age) were bred at the animal facility of TNO-InnoSer (Leiden, The Netherlands). Female animals were used in this study as they are more responsive to dietary cholesterol and fat than males and therefore typically develop atherosclerosis more rapidly than male APOE∗3-Leiden and APOE∗3-Leiden.CETP mice on cholesterol-containing diets ([33], [34]). […] Body weight, food intake, and clinical signs of behavior were monitored throughout the studies. […]
Treatment times were around 8:00 am and 4:00 pm each day. Throughout the in-life phase of the study, body weight and food intake (per cage) were measured at regular predetermined intervals while blood samples were collected every 7 days. […] Throughout the study, plasma cholesterol, triglycerides, HDL-C, lipoprotein profiles, PCSK9 expression levels, aspartate transaminase levels (AST), and alanine transaminase levels (ALT) were measured as described below.
The transcript levels of select genes in the liver tissue of mice treated with either vehicle or NYX-PCSK9i were analyzed. […] Differential transcriptional activity was calculated using the 2^–ΔΔCt method.

PCSK9-LDLR interaction = molecular target: T1, PCSK9-LDLR interaction (Homo sapiens, UniProt Q8NBP7); assay: CircuLex PCSK9-LDLR in vitro binding assay; settings: in vitro biochemical binding assay; read-out: IC50 against the PCSK9-LDLR interaction
T1 construct: purchased CycLex (Nagano, Japan) CY8150
From the text: Ethics was granted by the Comité de Protection des Personnes Sud Méditerranée (ID: 2020-A00196-33). Studies using human samples abided by the Declaration of Helsinki principles.

APOE∗3-Leiden.CETP mice [2] = assay: Second efficacy study: body weight, food intake, plasma ALT and AST; type: in vivo, mouse; design: Body weight (mean ± SD) / Food intake (mean ± SD): unit not given here; settings: NYX-PCSK9i 50 mg/kg BID PO, atorvastatin […]; for Plasma ALT / Plasma AST: group-pooled
From the text: as §1, §2

[3] = tested on: Hmgcr, Srebf2, Pcsk9, Ldlr, Mttp transcripts in liver tissue; assay: Hepatic gene transcription (qPCR), day 35; type: in vivo, mouse; settings: 50 mg/kg BID PO, 5 weeks
Description: The transcript levels of select genes in the liver tissue of mice treated with either vehicle or NYX-PCSK9i were analyzed. RNA was isolated from liver tissue using an RNA STAT-60 kit as per the manufacturer’s protocol. RNA concentrations were determined using a NanoDrop 2000 spectrophotometer (Thermo Fisher Scientific, Rockford, IL), and up to 2 μg of RNA was used as a template for cDNA synthesis using a High-capacity RNA-to-cDNA kit according to the manufacturer’s instructions. Quantitative PCR was performed with fluorescein amidite-labeled TaqMan® Assay primers and TaqMan® Fast Universal PCR Master Mix using a QuantStudio 6 Flex Real-Time PCR system (Applied Biosystems). DNA was amplified by applying a standard cycle protocol with an annealing temperature of 60°C and 40 cycles of amplification. Differential transcriptional activity was calculated using the 2^–ΔΔCt method.

[4] = 30 mg/kg BID PO, day 0 (baseline)
[5] = 50 mg/kg BID PO, day 0 (baseline)

T1 sequence (Q8NBP7 153-692): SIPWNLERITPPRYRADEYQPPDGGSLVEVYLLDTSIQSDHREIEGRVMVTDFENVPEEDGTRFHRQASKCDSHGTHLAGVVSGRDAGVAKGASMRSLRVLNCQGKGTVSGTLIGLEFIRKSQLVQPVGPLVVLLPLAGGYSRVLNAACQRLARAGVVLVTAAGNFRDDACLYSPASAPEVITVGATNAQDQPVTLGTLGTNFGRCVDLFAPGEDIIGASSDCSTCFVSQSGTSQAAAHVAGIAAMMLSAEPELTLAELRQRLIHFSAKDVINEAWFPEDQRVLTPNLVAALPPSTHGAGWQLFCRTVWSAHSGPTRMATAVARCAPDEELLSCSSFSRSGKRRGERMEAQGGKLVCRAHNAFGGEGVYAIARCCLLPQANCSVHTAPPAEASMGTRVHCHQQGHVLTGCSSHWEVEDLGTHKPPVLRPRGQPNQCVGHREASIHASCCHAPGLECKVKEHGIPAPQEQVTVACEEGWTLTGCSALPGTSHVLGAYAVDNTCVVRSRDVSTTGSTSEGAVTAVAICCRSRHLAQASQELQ
T1 sequence (Q8NBP7 31-152 partner limits assumed): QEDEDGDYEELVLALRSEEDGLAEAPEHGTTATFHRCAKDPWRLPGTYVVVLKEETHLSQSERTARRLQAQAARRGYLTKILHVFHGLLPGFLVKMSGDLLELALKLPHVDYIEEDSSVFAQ

Cc1cn(-c2cc(CN3CCC[C@H](N)C3)cc(NC(=O)c3cc(-c4ccccc4)ccn3)c2)cn1 [NYX-PCSK9i]
Body weight (mean ± SD) (APOE∗3-Leiden.CETP mice [1]; [4]): 21.9 ± 1.3 | Food intake (mean ± SD) (APOE∗3-Leiden.CETP mice [1]; [4]): 3.3 ± 0.3 | Body weight (mean ± SD) (APOE∗3-Leiden.CETP mice [1]; 30 mg/kg BID PO, day 7): 22.0 ± 1.6 | Food intake (mean ± SD) (APOE∗3-Leiden.CETP mice [1]; 30 mg/kg BID PO, day 7): 2.7 ± 0.3 | Food intake (mean ± SD) (APOE∗3-Leiden.CETP mice [1]; 30 mg/kg BID PO, day 14): 2.6 ± 0.6 | Food intake (mean ± SD) (APOE∗3-Leiden.CETP mice [1]; 30 mg/kg BID PO, day 21): 2.4 ± 0.2 | Body weight (mean ± SD) (APOE∗3-Leiden.CETP mice [1]; 30 mg/kg BID PO, day 28): 22.0 ± 1.1 | Food intake (mean ± SD) (APOE∗3-Leiden.CETP mice [1]; 30 mg/kg BID PO, day 28): 3.0 ± 0.1 | Food intake (mean ± SD) (APOE∗3-Leiden.CETP mice [1]; [5]): 3.3 ± 0.3 | Body weight (mean ± SD) (APOE∗3-Leiden.CETP mice [1]; 50 mg/kg BID PO, day 7): 21.8 ± 1.3 | Food intake (mean ± SD) (APOE∗3-Leiden.CETP mice [1]; 50 mg/kg BID PO, day 7): 2.6 ± 0.0 | Body weight (mean ± SD) (APOE∗3-Leiden.CETP mice [1]; 50 mg/kg BID PO, day 14): 21.8 ± 1.1 | Food intake (mean ± SD) (APOE∗3-Leiden.CETP mice [1]; 50 mg/kg BID PO, day 14): 2.9 ± 0.0 | Body weight (mean ± SD) (APOE∗3-Leiden.CETP mice [1]; 50 mg/kg BID PO, day 21): 21.5 ± 1.4 | Food intake (mean ± SD) (APOE∗3-Leiden.CETP mice [1]; 50 mg/kg BID PO, day 21): 2.7 ± 0.0 | Body weight (mean ± SD) (APOE∗3-Leiden.CETP mice [1]; 50 mg/kg BID PO, day 28): 21.6 ± 1.1 | Food intake (mean ± SD) (APOE∗3-Leiden.CETP mice [1]; 50 mg/kg BID PO, day 28): 2.7 ± 0.1 | plasma levels of the liver enzymes AST and ALT compared to vehicle (APOE∗3-Leiden.CETP mice [1]; 30 and 50 mg/kg BID PO, 28 days): remained stable | Plasma ALT (APOE∗3-Leiden.CETP mice [1]; [4]): 76.8 U/L | Plasma AST (APOE∗3-Leiden.CETP mice [1]; [4]): 185.2 U/L | Plasma ALT (APOE∗3-Leiden.CETP mice [1]; 30 mg/kg BID PO, day 7): 69.6 U/L | Plasma AST (APOE∗3-Leiden.CETP mice [1]; 30 mg/kg BID PO, day 7): 175.2 U/L | Plasma ALT (APOE∗3-Leiden.CETP mice [1]; 30 mg/kg BID PO, day 14): 70.0 U/L | Plasma AST (APOE∗3-Leiden.CETP mice [1]; 30 mg/kg BID PO, day 14): 158.8 U/L | Plasma ALT (APOE∗3-Leiden.CETP mice [1]; 30 mg/kg BID PO, day 21): 55.6 U/L | Plasma AST (APOE∗3-Leiden.CETP mice [1]; 30 mg/kg BID PO, day 21): 156.8 U/L | Plasma ALT (APOE∗3-Leiden.CETP mice [1]; 30 mg/kg BID PO, day 28): 35.6 U/L | Plasma AST (APOE∗3-Leiden.CETP mice [1]; 30 mg/kg BID PO, day 28): 84 U/L | Plasma ALT (APOE∗3-Leiden.CETP mice [1]; [5]): 70.0 U/L | Plasma AST (APOE∗3-Leiden.CETP mice [1]; [5]): 170.8 U/L | Plasma ALT (APOE∗3-Leiden.CETP mice [1]; 50 mg/kg BID PO, day 7): 74.8 U/L | Plasma AST (APOE∗3-Leiden.CETP mice [1]; 50 mg/kg BID PO, day 7): 181.2 U/L | Plasma ALT (APOE∗3-Leiden.CETP mice [1]; 50 mg/kg BID PO, day 14): 56 U/L | Plasma AST (APOE∗3-Leiden.CETP mice [1]; 50 mg/kg BID PO, day 14): 147.6 U/L | Plasma ALT (APOE∗3-Leiden.CETP mice [1]; 50 mg/kg BID PO, day 21): 47.6 U/L | Plasma AST (APOE∗3-Leiden.CETP mice [1]; 50 mg/kg BID PO, day 21): 120.4 U/L | Plasma ALT (APOE∗3-Leiden.CETP mice [1]; 50 mg/kg BID PO, day 28): 38 U/L | Plasma AST (APOE∗3-Leiden.CETP mice [1]; 50 mg/kg BID PO, day 28): 107 U/L | increase in hepatic LDLR protein levels (hepatic LDLR protein; 30 mg/kg BID PO): 46% | increase in hepatic LDLR protein levels (hepatic LDLR protein; 50 mg/kg BID PO): 51% | IC50 (PCSK9-LDLR interaction): 323 nM | Body weight (mean ± SD) (APOE∗3-Leiden.CETP mice [2]; day 0 (baseline)): 21.9 ± 1.7 | Food intake (mean ± SD) (APOE∗3-Leiden.CETP mice [2]; day 0 (baseline)): 3.4 ± 0.3 | Food intake (mean ± SD) (APOE∗3-Leiden.CETP mice [2]; day 7): 3.5 ± 0.3 | Body weight (mean ± SD) (APOE∗3-Leiden.CETP mice [2]; day 14): 23.0 ± 2.4 | Food intake (mean ± SD) (APOE∗3-Leiden.CETP mice [2]; day 14): 3.4 ± 0.0 | Body weight (mean ± SD) (APOE∗3-Leiden.CETP mice [2]; day 21): 22.4 ± 2.0 | Food intake (mean ± SD) (APOE∗3-Leiden.CETP mice [2]; day 21): 2.7 ± 0.0 | Body weight (mean ± SD) (APOE∗3-Leiden.CETP mice [2]; day 28): 21.9 ± 2.1 | Food intake (mean ± SD) (APOE∗3-Leiden.CETP mice [2]; day 28): 2.7 ± 0.1 | Food intake (mean ± SD) (APOE∗3-Leiden.CETP mice [2]; day 35): 2.7 ± 0.3 | Plasma ALT (APOE∗3-Leiden.CETP mice [2]; day 0 (baseline)): 91 U/L | Plasma AST (APOE∗3-Leiden.CETP mice [2]; day 0 (baseline)): 91 U/L | Plasma ALT (APOE∗3-Leiden.CETP mice [2]; day 14): 84 U/L | Plasma AST (APOE∗3-Leiden.CETP mice [2]; day 14): 84 U/L | Plasma ALT (APOE∗3-Leiden.CETP mice [2]; day 28): 36 U/L | Plasma AST (APOE∗3-Leiden.CETP mice [2]; day 28): 36 U/L | Plasma ALT (APOE∗3-Leiden.CETP mice [2]; day 35): 42 U/L | Plasma AST (APOE∗3-Leiden.CETP mice [2]; day 35): 42 U/L | increase in hepatic transcription of Pcsk9 [3]: 61% | upregulation of hepatic Srebf2 transcript [3]: 33%
